According to patent US20100056497A1, “AMIDE DERIVATIVE” (DAINIPPON SUMITOMO PHARMA CO., LTD, priority 2007, published 2010):
Structures can show the parent of a compound that is named as a salt.

Molecular target: T1, Recombinant human renin (Homo sapiens, UniProt P00797)
T1 sequence (P00797 67-406): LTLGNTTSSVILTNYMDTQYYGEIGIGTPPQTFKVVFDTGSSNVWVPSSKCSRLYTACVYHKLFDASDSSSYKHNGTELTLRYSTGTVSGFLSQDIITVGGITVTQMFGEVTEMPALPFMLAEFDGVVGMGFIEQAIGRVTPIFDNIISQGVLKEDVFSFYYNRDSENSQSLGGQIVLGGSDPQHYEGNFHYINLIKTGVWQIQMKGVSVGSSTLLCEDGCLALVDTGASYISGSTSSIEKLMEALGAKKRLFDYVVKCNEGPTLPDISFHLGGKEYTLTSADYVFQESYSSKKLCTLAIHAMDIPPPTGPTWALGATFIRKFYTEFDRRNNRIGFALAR
Test: In vitro renin inhibitory activity assay (fluorescence, FRET peptide substrate)
Format: biochemical
Conditions: 37° C., one hour, substrate 4 μM, pH 7.4
Experimental: In Vitro Renin Inhibitory Activity Assay
Recombinant human renin (50 ng) was reacted in 0.1M BEPES buffer (pH 7.4) containing 0.1M NaCl, 1 mM EDTA and 0.1 mg/mL BSA together with a substrate and a test compound at 37° C. for one hour. As the substrate, Arg-Glu(EDANS)-Ile-His-Pro-Phe-His-Leu-Val-Ile-His-Thr-Lys(DABCYL)-Arg or DABCYL-γ-Abu-Ile-His-Pro-Phe-His-Leu-Val-Ile-His-Thr-EDANS was added in such an amount so that the final concentration thereof became 4 μM. The elevated fluorescence intensity at the exciting wavelength 340 nm and the fluorescence wavelength 500 nm was measured by a fluorescence plate reader. The concentration of a test compound to be needed to inhibit an enzyme activity in the presence of a test compound in plural concentrations by 50% was calculated as an IC50 value.
The amino acid sequence disclosed in Seq ID:1 is an amino acid sequence used in the renin inhibitory activity assay.
The amino acid sequence disclosed in Seq ID:2 is an amino acid sequence used in the renin inhibitory activity assay.

Which IC50 does the source give for `COCCCOc1cc(C(=O)N(C(C)C)[C@@H]2CC[C@H](CCN(C(=O)Cc3ccccc3Cl)C3CC3)NC2)ccc1OC` [Example 72, N-((3R,6R)-6-{2-[[(2-chlorophenyl)acetyl](cyclopropyl)amino]ethyl}piperidin-3-yl)-N-isopropyl-4-methoxy-3-(3-methoxypropoxy)benzamide trifluoroacetate] here?
The IC50 was 3.7 nM.

For `COCCCOc1cc(C(=O)N(C(C)C)[C@@H]2CC[C@H](CCN(C(=O)Cc3ccccc3OC)C3CC3)NC2)ccc1OC` [Example 73, N-[(3R,6R)-6-(2-{Cyclopropyl[(2-methoxyphenyl)acetyl]amino}ethyl)piperidin-3-yl]-N-isopropyl-4-methoxy-3-(3-methoxypropoxy)benzamide trifluoroacetate], which IC50 is on record?
Its IC50 is 4.6 nM.

Which IC50 does the source give for `COCCCOc1cc(C(=O)N(C(C)C)[C@@H]2CC[C@H](CCN(C(=O)Cc3ccccc3C(F)(F)F)C3CC3)NC2)ccc1OC` [Example 74, N-{(3R,6R)-6-[2-(Cyclopropyl{[2-(trifluoromethyl)phenyl]acetyl}amino)ethyl]-piperidin-3-yl}-N-isopropyl-4-methoxy-3-(3-methoxypropoxy)benzamide trifluoroacetate] here?
The IC50 was 5.1 nM.

For `COCCCOc1cc(C(=O)N(C(C)C)[C@@H]2CC[C@H](CCN(C(=O)Cc3ccccn3)C3CC3)NC2)ccc1OC` [Example 75, N-((3R,6R)-6-{2-[Cyclopropyl(pyridin-2-ylacetyl)amino]ethyl}piperidin-3-yl)-N-isopropyl-4-methoxy-3-(3-methoxypropoxy)benzamide trifluoroacetate], which IC50 is on record?
The IC50 was 4.7 nM.

For `COCCCOc1cc(C(=O)N(C(C)C)[C@@H]2CC[C@H](CCN(C(=O)Cc3cccnc3)C3CC3)NC2)ccc1OC` [Example 78, N-((3R,6R)-6-{2-[Cyclopropyl(pyridin-3-ylacetyl)amino]ethyl}piperidin-3-yl)-N-isopropyl-4-methoxy-3-(3-methoxypropoxy)benzamide trifluoroacetate], which IC50 is on record?
The IC50 was 0.79 nM.

Which IC50 does the source give for `COCCCOc1cc(C(=O)N(C(C)C)[C@@H]2CC[C@H](CCN(C(=O)Cc3cccc(NS(C)(=O)=O)c3)C3CC3)NC2)ccc1OC` [Example 81, N-((3R,6R)-6-{2-[Cyclopropyl({3-[(methylsulfonyl)amino]phenyl}acetyl)amino]-ethyl}piperidin-3-yl)-N-isopropyl-4-methoxy-3-(3-methoxypropoxy)benzamide trifluoroacetate] here?
The IC50 was 1.3 nM.

Which IC50 does the source give for `COCCCOc1cc(C(=O)N(C(C)C)[C@@H]2CC[C@H](CCN(C(=O)Cc3cccc(C(=O)O)c3)C3CC3)NC2)ccc1OC` [Example 86, 3-(2-{Cyclopropyl[2-((2R,5R)-5-{isopropyl[4-methoxy-3-(3-methoxypropoxy)-benzoyl]amino}piperidin-2-yl)ethyl]amino}-2-oxoethyl)benzoic acid hydrochloride] here?
The IC50 was 4 nM.

With `COCCCCN1C(=O)C(C)(C)Oc2ccc(C(=O)N(C(C)C)[C@@H]3CCCNC3)cc21` [Example 126, N-Isopropyl-4-(4-methoxybutyl)-2,2-dimethyl-3-oxo-N-[(3R)-piperidin-3-yl]-3,4-dihydro-2H-1,4-benzoxazine-6-carboxyamide hydrochloride] as the compound, how does the IC50 read?
The IC50 was 21.7 nM.

Test system: plasma renin activity / blood pressure
Test: not given
Conditions: clinical test in patients with hypertension; cited from earlier work

Which results are given for `COCCCOc1cc(C[C@@H](C[C@H](N)[C@@H](O)C[C@H](C(=O)NCC(C)(C)C(N)=O)C(C)C)C(C)C)ccc1OC` [aliskiren]?
hypotensive activity: excellent hypotensive activity comparable to other RA system inhibitors; plasma renin activity: significantly inhibits plasma renin activity
